The text below walks through data of US11247980B2, “Herbicidal uracilpyrid” (BASF SE, priority 2017, dated 2022).

The subject of data set [1] is resistant weeds containing the ΔG210 mutation (w.2). The experiment in a line: greenhouse experiment, control of resistant weeds: resistant biotype. The format is in vivo. The settings on record: for weed control (%) w.2: AMATA Amaranthus tamariscinus, PPO resistant biotype 1 (ΔG210 mutation); for activity on resistant weeds containing the ΔG210 mutation (w.2): greenhouse, scale from 0 to 100. An excerpt:
(§1) The culture containers used were plastic flowerpots containing loamy sand with approximately 3.0% of humus as the substrate. The seeds of the test plants were sown separately for each species and/or resistant biotype. For the pre-emergence treatment, the active ingredients, which had been suspended or emulsified in water, were applied directly after sowing by means of finely distributing nozzles. The containers were irrigated gently to promote germination and growth and subsequently covered with transparent plastic hoods until the plants had rooted. This cover caused uniform germination of the test plants, unless this had been impaired by the active ingredients. For the post-emergence treatment, the test plants were first grown to a height of 3 to 15 cm, depending on the plant habit, and only then treated with the active ingredients which had been suspended or emulsified in water. For this purpose, the test plants were either sown directly and grown in the same containers, or they were first grown separately as seedlings and transplanted into the test containers a few days prior to treatment. Depending on the species, the plants were kept at 10-25° C. or 20-35° C., respectively. The test period extended over 2 to 4 weeks. During this time, the plants were tended, and their response to the individual treatments was evaluated. The evaluation was carried out by using a scale from 0 to 100. 100 means no emergence of the plants or complete destruction of at least the above-ground parts, and 0 means no damage, or normal course of growth.
(§2) The plants used in the greenhouse experiments were of the following species and biotype: […]

The subject of data set [2] is resistant weeds containing the ΔG210 mutation (w.3). Described as above. The class given is in vivo. The settings on record: for weed control (%) w.3: AMATA Amaranthus tamariscinus, PPO resistant biotype 2 (ΔG210 mutation); for activity on resistant weeds containing the ΔG210 mutation (w.3): greenhouse, scale from 0 to 100.
Text: as §1, §2

Another data set relates to sensitive (w.1). As to the kind of experiment: greenhouse experiment, control of resistant weeds: sensitive biotype. The class given is in vivo. The settings on record: for weed control (%) w.1: AMATA Amaranthus tamariscinus, sensitive biotype; for activity on sensitive weeds (w.1): greenhouse, scale from 0 to 100.
Text: as §1, §2

In a further data set the test system is LOLMU. As to the kind of experiment: greenhouse experiments, herbicidal activity, post-emergence treatment. The class given is in vivo, Lolium multiflorum. The settings on record: application rate 8 g/ha, scale 0 to 100. The text has this: (§3) The culture containers used were plastic flowerpots containing loamy sand with approximately 3.0% of humus as the substrate. The seeds of the test plants were sown separately for each species.
(§4) For the pre-emergence treatment, the active ingredients, which had been suspended or emulsified in water, were applied directly after sowing by means of finely distributing nozzles. The containers were irrigated gently to promote germination and growth and subsequently covered with transparent plastic hoods until the plants had rooted. This cover caused uniform germination of the test plants, unless this had been impaired by the active ingredients. For the post-emergence treatment, the test plants were first grown to a height of 3 to 15 cm, depending on the plant habit, and only then treated with the active ingredients which had been suspended or emulsified in water. For this purpose, the test plants were either sown directly and grown in the same containers, or they were first grown separately as seedlings and transplanted into the test containers a few days prior to treatment.
(§5) Depending on the species, the plants were kept at 10-25° C. or 20-35° C., respectively. The test period extended over 2 to 4 weeks. During this time, the plants were tended, and their response to the individual treatments was evaluated.
(§6) Evaluation was carried out using a scale from 0 to 100. […]

For another data set, the system named is ZEAMX. The experiment in a line: greenhouse experiments, post-emergence treatment, crop compatibility. The format is in vivo, Zea mays. The settings on record: crop plants ZEAMX, application rate 2 g/ha, scale 0 to 100.
Text: as §3, §4, §5, §6

Another data set relates to BRADC. As to the kind of experiment: greenhouse experiments, herbicidal activity, post-emergence treatment. The class given is in vivo, Brachiaria decumbens. The following applies: application rate 2 g/ha, scale 0 to 100.
Text: as §3, §4, §5, §6

The test system of another data set is MATCH. Described as above. The format is in vivo, Matricaria chamomilla. The following applies: application rate 8 g/ha, scale 0 to 100.
Text: as §3, §4, §5, §6

In a further data set the test system is ALOMY. The data set is described as above. The class given is in vivo, Alopecurus myosuroides. The following applies: application rate 8 g/ha, scale 0 to 100.
Text: as §3, §4, §5, §6

A further data set deals with CHEAL. The description is as above. The class given is in vivo, Chenopodium album. The settings on record: application rate 1 g/ha, scale 0 to 100.
Text: as §3, §4, §5, §6

As for `C#CCOc1cc(-n2nc3n(c2=O)CCCC3)c(Cl)cc1Cl` [azafenidin, reference compound], the “weed control (%) w.2” value came out at 62% in [1] (use rate 2 g/ha) and 78% in data set [1] (use rate 4 g/ha). For the same compound, the “activity on resistant weeds containing the ΔG210 mutation (w.2)” value in [1] is on record as “much weaker control of resistant in comparison to sensitive biotypes”. Moreover, the “weed control (%) w.3” value in [2] (use rate 2 g/ha) and in data set [2] (use rate 4 g/ha) was 77% throughout. In addition, in data set [2], the “activity on resistant weeds containing the ΔG210 mutation (w.3)” value was “much weaker control of resistant in comparison to sensitive biotypes”. The “weed control (%) w.1” value in the data set on sensitive (w.1) (use rate 2 g/ha) stood at 88%; in the data set with sensitive (w.1) (use rate 4 g/ha), 100%.
Turning to `CCOC(=O)COc1ccccc1Oc1nc(-n2c(=O)cc(C(F)(F)F)n(C)c2=O)c(F)cc1Cl` [compound 1, Ethyl 2-[2-[[3-chloro-5-fluoro-6-[3-methyl-2,6-dioxo-4-(trifluoromethyl)pyrimidin-1-yl]-2-pyridyl]oxy]phenoxy]acetate], the “weed control (%) w.2” value in data set [1] (use rate 2 g/ha) is on record as 87%; in [1] (use rate 4 g/ha) it was 100%. Moreover, the “activity on resistant weeds containing the ΔG210 mutation (w.2)” value in data set [1] was “very good activity”. For the same compound, the “weed control (%) w.3” value in data set [2] (use rate 2 g/ha) worked out at 98%; in [2] (use rate 4 g/ha), 100%. Besides, in data set [2], the “activity on resistant weeds containing the ΔG210 mutation (w.3)” value is recorded as “very good activity”. The “weed control (%) w.1” value came out at 88% with sensitive (w.1) (use rate 2 g/ha) and 100% in the data set with sensitive (w.1) (use rate 4 g/ha). The “activity on sensitive weeds (w.1)” value in the data set with sensitive (w.1) is listed as “very good activity”.
For the compound `COC(=O)C(OC)Oc1ccccc1Oc1nc(-n2c(=O)cc(C(F)(F)F)n(C)c2=O)c(F)cc1Cl` (centres unmarked) [compound 2, Methyl 2-[2-[[3-chloro-5-fluoro-6-[3-methyl-2,6-dioxo-4-(trifluoromethyl)pyrimidin-1-yl]-2-pyridyl]oxy]phenoxy]-2-methoxy-acetate], the damages in the data set with LOLMU is 70; with ZEAMX it was 25; with BRADC, 80; in the data set with MATCH, 70; with ALOMY, 70; in the data set on CHEAL, 90.
`CCOC(=O)COc1ncccc1Oc1nc(-n2c(=O)cc(C(F)(F)F)n(C)c2=O)c(F)cc1Cl` [compound 7, Ethyl 2-[[3-[[3-chloro-5-fluoro-6-[3-methyl-2,6-dioxo-4-(trifluoromethyl)pyrimidin-1-yl]-2-pyridyl]oxy]-2-pyridyl]oxy]acetate]: the “weed control (%) w.2” value in data set [1] (use rate 2 g/ha) and in [1] (use rate 4 g/ha) was 100% throughout. Besides, in data set [1], the “activity on resistant weeds containing the ΔG210 mutation (w.2)” value is given as “very good activity”. For the same compound, the “weed control (%) w.3” value in [2] (use rate 2 g/ha) and in data set [2] (use rate 4 g/ha) was 100% in each case. Besides, the “activity on resistant weeds containing the ΔG210 mutation (w.3)” value in [2] is “very good activity”. The “weed control (%) w.1” value in the data set on sensitive (w.1) (use rate 2 g/ha) is on record as 93%; in the data set with sensitive (w.1) (use rate 4 g/ha), 100%. In addition, the “activity on sensitive weeds (w.1)” value in the data set with sensitive (w.1) is recorded as “very good activity”.
